Patent US20250325710A1, “Advanced In Vivo Platform to Study Human Neural Maturation and Circuit Integration” (priority 2022, published 2025)

Experiments:
[1] = tested on: Wnt processing and secretion; details: cell-free assay; cited from earlier work
[2] = tested on: Wnt-stimulated cellular responses; details: cited from earlier work
[3] = tested on: PORCN; details: read-out: EC50, Porcn inhibitor; cited from earlier work
[4] = tested on: Wnt signaling; details: TM3 cells; cited from earlier work
[5] = target: T1, TNKS2 (Homo sapiens, UniProt Q9H2K2); details: cited from earlier work
T1 sequence (Q9H2K2 1-1166): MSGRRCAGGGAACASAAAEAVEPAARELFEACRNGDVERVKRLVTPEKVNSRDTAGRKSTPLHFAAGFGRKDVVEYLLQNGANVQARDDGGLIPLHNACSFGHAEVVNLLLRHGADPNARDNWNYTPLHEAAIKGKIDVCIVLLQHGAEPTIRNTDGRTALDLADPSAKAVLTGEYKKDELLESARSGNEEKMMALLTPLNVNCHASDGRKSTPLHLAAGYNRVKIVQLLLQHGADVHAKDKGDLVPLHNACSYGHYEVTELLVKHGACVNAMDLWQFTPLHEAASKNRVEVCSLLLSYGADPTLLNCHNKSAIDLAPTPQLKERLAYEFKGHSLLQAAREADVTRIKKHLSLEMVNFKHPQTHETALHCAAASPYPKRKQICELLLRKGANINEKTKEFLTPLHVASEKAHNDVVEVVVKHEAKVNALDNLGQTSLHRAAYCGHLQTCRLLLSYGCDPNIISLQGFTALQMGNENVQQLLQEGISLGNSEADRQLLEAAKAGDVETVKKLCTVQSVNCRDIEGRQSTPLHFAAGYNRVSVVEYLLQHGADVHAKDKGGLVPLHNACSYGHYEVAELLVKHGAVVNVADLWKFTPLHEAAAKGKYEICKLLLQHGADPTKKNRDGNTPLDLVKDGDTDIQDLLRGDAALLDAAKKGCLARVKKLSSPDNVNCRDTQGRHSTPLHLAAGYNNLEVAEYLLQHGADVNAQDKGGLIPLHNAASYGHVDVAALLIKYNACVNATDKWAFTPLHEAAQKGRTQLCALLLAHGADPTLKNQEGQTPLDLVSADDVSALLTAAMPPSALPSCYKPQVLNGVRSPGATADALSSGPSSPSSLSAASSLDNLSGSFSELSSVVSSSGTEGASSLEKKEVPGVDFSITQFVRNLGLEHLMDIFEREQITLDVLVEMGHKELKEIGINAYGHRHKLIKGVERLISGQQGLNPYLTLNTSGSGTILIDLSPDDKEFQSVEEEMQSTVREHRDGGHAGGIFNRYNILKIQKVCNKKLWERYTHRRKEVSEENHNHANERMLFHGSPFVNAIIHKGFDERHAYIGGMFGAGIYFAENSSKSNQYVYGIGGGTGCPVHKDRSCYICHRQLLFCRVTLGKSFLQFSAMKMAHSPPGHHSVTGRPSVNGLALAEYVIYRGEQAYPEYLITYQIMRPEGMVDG

[6] = tested on: AMPA receptor; test: Whole-cell recordings of evoked EPSCs in t-hCS human neurons in acute thalamocortical slices; assay type: cell-based; details: evoked by electrical stimulation of rat S1, internal capsule, white matter or t-hCS, or optogenetic activation of thalamic terminals; NBQX 10 μM
[7] = tested on: AMPA receptor; test: Whole-cell recordings of blue light-evoked EPSCs in rat pyramidal cortical neurons in acute brain slices (activation of t-hCS axons); assay type: cell-based; details: evoked by blue light activation of t-hCS axons; NBQX 10 μM
[8] = tested on: PORCN; details: HEK293 cells; read-out: IC50, Wnt3A-mediated activation of a multimerized TCF-binding site driving luciferase; cited from earlier work
[9] = target: Smo heptahelical domain (Homo sapiens, UniProt Q99835); details: cited from earlier work
Sequence of Smo heptahelical domain (Q99835 28-787): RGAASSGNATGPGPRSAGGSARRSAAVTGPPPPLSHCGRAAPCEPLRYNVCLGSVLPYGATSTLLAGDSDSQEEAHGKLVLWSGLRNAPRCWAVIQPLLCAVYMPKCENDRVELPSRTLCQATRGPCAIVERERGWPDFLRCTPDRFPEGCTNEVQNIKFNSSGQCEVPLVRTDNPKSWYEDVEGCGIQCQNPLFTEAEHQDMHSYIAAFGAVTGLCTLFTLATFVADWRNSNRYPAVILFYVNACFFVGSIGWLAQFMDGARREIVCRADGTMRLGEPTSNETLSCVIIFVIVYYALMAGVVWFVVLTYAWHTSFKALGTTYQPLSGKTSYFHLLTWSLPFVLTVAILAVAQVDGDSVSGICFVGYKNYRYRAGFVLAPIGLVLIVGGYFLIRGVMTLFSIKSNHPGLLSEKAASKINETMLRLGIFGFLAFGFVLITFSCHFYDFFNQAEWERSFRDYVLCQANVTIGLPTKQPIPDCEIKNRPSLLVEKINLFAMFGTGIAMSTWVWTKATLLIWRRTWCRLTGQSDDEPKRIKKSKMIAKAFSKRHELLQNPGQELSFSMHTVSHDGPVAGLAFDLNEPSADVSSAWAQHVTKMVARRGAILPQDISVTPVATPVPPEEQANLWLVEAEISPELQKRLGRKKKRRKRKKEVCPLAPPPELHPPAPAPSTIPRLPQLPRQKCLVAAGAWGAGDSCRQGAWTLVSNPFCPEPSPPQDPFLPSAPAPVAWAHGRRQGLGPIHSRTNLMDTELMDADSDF

[10] = tested on: blue light-evoked EPSCs in rat pyramidal cortical neurons; assay type: cell-based
[11] = target: element-binding protein (CBP) (Homo sapiens, UniProt Q92793); details: cited from earlier work
Sequence of element-binding protein (CBP) (Q92793 whole entry): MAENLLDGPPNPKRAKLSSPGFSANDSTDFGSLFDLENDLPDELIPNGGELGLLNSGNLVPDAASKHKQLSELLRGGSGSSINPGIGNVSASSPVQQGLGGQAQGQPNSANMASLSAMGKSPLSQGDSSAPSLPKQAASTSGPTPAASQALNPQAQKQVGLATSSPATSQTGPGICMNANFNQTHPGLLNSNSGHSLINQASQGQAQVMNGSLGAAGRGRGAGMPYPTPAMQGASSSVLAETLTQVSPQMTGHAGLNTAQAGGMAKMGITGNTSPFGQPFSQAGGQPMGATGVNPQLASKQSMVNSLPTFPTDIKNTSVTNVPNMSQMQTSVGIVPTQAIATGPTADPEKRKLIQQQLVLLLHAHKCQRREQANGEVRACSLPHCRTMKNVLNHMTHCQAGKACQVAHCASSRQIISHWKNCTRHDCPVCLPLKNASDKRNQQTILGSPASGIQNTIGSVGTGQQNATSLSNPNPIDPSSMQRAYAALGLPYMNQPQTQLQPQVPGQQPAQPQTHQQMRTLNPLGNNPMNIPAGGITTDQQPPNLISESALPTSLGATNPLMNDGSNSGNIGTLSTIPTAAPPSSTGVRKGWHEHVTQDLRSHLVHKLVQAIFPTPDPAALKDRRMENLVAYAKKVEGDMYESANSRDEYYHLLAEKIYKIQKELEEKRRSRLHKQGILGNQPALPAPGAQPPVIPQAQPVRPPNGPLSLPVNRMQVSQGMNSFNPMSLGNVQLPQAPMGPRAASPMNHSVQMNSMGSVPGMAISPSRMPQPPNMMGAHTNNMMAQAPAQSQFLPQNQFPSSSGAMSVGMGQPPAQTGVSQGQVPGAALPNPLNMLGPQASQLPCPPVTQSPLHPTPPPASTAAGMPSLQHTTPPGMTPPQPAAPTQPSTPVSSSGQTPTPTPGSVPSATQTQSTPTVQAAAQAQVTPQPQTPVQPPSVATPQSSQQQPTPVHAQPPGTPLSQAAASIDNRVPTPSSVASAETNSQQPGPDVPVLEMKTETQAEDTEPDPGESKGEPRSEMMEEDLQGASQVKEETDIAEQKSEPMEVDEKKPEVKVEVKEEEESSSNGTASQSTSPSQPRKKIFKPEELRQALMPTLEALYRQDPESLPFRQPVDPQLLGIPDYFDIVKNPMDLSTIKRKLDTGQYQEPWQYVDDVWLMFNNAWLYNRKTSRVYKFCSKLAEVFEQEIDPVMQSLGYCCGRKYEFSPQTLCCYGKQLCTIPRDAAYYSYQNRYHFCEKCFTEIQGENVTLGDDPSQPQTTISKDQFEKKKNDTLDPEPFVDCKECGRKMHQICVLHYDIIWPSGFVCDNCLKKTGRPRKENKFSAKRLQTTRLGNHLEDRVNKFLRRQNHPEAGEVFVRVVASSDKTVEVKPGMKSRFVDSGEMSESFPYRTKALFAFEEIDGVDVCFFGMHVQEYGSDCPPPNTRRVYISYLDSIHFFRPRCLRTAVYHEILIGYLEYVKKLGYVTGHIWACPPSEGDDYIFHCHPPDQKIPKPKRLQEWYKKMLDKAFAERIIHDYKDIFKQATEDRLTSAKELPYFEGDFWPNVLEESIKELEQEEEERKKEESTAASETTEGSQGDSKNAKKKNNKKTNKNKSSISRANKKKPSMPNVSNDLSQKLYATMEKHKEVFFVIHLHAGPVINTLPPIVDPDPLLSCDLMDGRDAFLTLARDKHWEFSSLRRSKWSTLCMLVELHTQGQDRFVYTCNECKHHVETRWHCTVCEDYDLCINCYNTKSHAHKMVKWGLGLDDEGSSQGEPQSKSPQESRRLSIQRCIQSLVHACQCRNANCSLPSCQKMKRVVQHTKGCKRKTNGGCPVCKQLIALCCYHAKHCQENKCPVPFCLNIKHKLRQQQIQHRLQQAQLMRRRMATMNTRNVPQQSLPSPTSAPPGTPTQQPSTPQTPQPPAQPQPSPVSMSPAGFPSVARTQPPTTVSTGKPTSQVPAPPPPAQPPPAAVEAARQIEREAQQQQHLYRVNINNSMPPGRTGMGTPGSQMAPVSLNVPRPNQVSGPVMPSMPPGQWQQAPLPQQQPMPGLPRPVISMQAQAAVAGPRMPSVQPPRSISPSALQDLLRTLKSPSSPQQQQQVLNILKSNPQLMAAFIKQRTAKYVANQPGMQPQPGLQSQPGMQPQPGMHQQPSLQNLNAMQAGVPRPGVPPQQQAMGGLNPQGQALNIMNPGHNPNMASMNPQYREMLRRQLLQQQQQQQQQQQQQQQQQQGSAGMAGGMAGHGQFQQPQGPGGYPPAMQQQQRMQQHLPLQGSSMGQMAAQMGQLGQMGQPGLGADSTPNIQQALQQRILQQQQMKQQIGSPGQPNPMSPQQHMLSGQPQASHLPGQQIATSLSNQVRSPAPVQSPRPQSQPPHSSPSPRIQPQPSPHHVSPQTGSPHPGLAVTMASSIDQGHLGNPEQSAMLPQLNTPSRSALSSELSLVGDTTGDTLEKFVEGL

Compound: Cc1ccc2nc(NC(=O)CSc3nc4c(c(=O)n3-c3ccccc3)SCC4)sc2c1 [IWP-2]
- IC50 [1]: 27 nM
- Effect against Wnt-stimulated cellular responses [2]: no effect

Compound: O=C(CSc1nc2c(c(=O)n1-c1ccccc1)SCC2)Nc1ccc(-c2ccccc2)cn1 [IWP-L6]
- EC50 [3]: 0.5 nM

Compound: Cc1cc(-c2ncc(CC(=O)Nc3ccc(-c4cnccn4)cn3)cc2C)ccn1 [LGK-974]
- IC50 [4]: 0.4 nM

Compound: COc1ccc(-n2c(SCCCN3C(=O)c4cccc5cccc(c45)C3=O)nnc2-c2ccncc2)cc1 [WIKI4]
- IC50 [5]: 15 nM

Compound: NS(=O)(=O)c1cccc2c1c([N+](=O)[O-])cc1nc(O)c(O)nc12 [NBQX]
- Effect on short latency EPSCs in human t-hCS neurons [6]: blocked
- Effect on short-latency EPSCs in rat pyramidal cortical neurons [7]: blocked

Compound: Cc1cc(-c2ccc(CC(=O)Nc3ccc(-c4cccnc4)cc3)cc2)ccn1 [Wnt-C59]
- IC50 [8]: 0.074 nM

Compound: CNC1CCC(N(Cc2cccc(-c3ccncc3)c2)C(=O)c2sc3ccccc3c2Cl)CC1 (centres unmarked) [SAG]
- Kd [9]: 59 nM

Compound: Nc1ccncc1 [4-AP, 4 Amino-Pyridine]
- Effect on blue light-evoked responses in rat cortical neurons [10]: recovered

Compound: O=C1[C@H](Cc2ccc(O)cc2)N2C(=O)CCN(C(=O)NCc3ccccc3)[C@H]2CN1Cc1cccc2ccccc12 [ICG-001]
- IC50 [11]: 3000 nM
